The results in this text go back to patent US9066880B2, “Use of dihydrodehydrodiisoeugenol and preparations comprising dihydrodehydrodiisoeugenol” (SYMRISE AG, priority 2010, dated 2015).

The subject of experiment [1] is Preadipocyte factor 1 (Pref1). The experiment in a line: Real Time-PCR, expression of preadipocytes marker Pref-1 in 3T3-L1-cells. It counts as cell-based, mouse. The note with it: relative to hormone mix stimulation (set equal to one). The method, then: (§1) 3T3-L1-cells (mouse embryonic fibroblast-like preadipocytes cell line) were propagated in Dulbecco's Modified Eagle Medium (DMEM), enriched with 10% newborn calf serum (CS) at 37° C. and 5% CO2 and seeded in 12-well plates for gene expression analysis. After reaching confluence at day −2, the differentiation was induced by changing medium at day 0 to DMEM with 10% fetal calf serum (FCS) containing a hormone mix (HM) of 1 μg/ml insulin, 0.25 μM dexamethasone (Dex) and 0.5 mM 3-isobutyl-1-methylxanthine (IBMX). Compounds of interest such as compound of formula (I) are applied from day −2 (confluence of the cells) until day 2 using various concentrations. Medium is renewed every other day. At day 2, medium consisting of DMEM, 10% FCS and 1 μg/ml insulin is added. From day 4 on, only DMEM containing 10% FCS is used for further cultivation of cells. […]
(§2) Total RNA from cell culture samples was isolated using RNeasy Total RNA Kits (Qiagen, Hilden; Germany). The RNA concentration and purity was determined photometrically using 260/280 ratios (Biophotometer, Eppendorf, Hamburg, Germany). […] At least three independent experiments were performed with 2 determinations each and the mean value of these was calculated. […] Each sample was analyzed in duplicate employing the universal protocol over 46 cycles. […]

Experiment [2] has as its system 3T3-L1-cells (mouse embryonic fibroblast-like preadipocytes cell line). The experiment in a line: Quantification of intracellular lipids (stimulation of adipogenesis), Nile Red. The format is cell-based. Further details: Stimulation of adipogenesis: unit not given here. Conditions: applied day −2 to day 2, Nile Red at day 10, vs hormone mix only. The method, then:
3T3-L1-cells (mouse embryonic fibroblast-like preadipocytes cell line) were propagated in Dulbecco's Modified Eagle Medium (DMEM), enriched with 10% newborn calf serum (CS) at 37° C. and 5% CO2 and seeded in 48-well plates for lipid quantification. After reaching confluence at day −2 the differentiation was induced by changing medium at day 0 to DMEM with 10% fetal calf serum (FCS) containing a hormone mix (HM) of 1 μg/ml insulin, 0.25 μM dexamethasone (Dex) and 0.5 mM 3-isobutyl-1-methylxanthine (IBMX).
Compounds of interest such as compound of formula (I) are applied from day −2 (confluence of the cells) until day 2 using various concentrations. Medium is renewed every other day. At day 2, medium consisting of DMEM, 10% FCS and 1 μg/ml insulin is added. From day 4 on, only DMEM containing 10% FCS is used for further cultivation of cells. At day 10, quantification of the intracellular lipid droplets is performed by addition of the fluorescent dye Nile Red (9-diethylamino-5H-benzo[alpha]phenoxazine-5-one) for 20 minutes at 37° C. and 5% CO2. Fluorescence (RFU) is detected with excitation at 485 nm and emission at 535 nm.
Stimulation of the adipogenesis in the presence of the compounds of interest is calculated according to the following equation:
[formula] wherein • RFU test substance=Relative Fluorescence Units of the wells with test substance and with cells • RFU control=Relative Fluorescence Units of the wells stimulated with hormone mix only. • RFU without cells=Relative Fluorescence Units of the wells containing Nile Red only, without cells.

The test system of a further experiment is adiponectin. The experiment in a line: Real Time-PCR, expression of differentiation marker adiponectin in 3T3-L1-cells. It counts as cell-based, mouse. Conditions: fold induction compared to hormone mix stimulation (set equal to one). On the procedure: as §1, §2
Experiment [3] deals with CCAAT enhancer binding protein α (C/EBPα). The experiment is described as follows: Real Time-PCR, expression of differentiation marker C/EBPα in 3T3-L1-cells. The note with it: fold induction compared to hormone mix stimulation (set equal to one). The format is cell-based, mouse. The method, then:
as §1, §2

As for `CCCc1cc(OC)c2c(c1)C(C)C(c1ccc(O)c(OC)c1)O2` (stereo not drawn) [compound of formula (I), 2-Methoxy-4-(7-methoxy-3-methyl-5-propyl-2,3-dihydro-benzofuran-2-yl)-phenol], the figures for the “Relative expression at day 2, Pref-1” value in experiment [1] (1 μM) and in experiment [1] (10 μM) were 0.3 and 0.7, respectively. Moreover, the Stimulation of adipogenesis in experiment [2] (0.01 μM) came to 18; in experiment [2] (0.1 μM) it was 30; in experiment [2] (0.25 μM) it was 35; in experiment [2] (0.5 μM), 38; in experiment [2] (0.75 μM), 48; in experiment [2] (1 μM) it was 49. Also, the Stimulation of adipogenesis worked out at 48 in experiment [2] (2.5 μM), 37 in experiment [2] (5 μM) and 22 in experiment [2] (10 μM). Also, the “Stimulation of expression at day 2, Adiponectin” value is reported as 1.4 in the experiment on adiponectin (1 μM) and 2.2 in the experiment with adiponectin (10 μM). Besides, the “Stimulation of expression at day 2, C/EBPα” value in experiment [3] (1 μM) came to 1.1; in experiment [3] (10 μM) it was 2.2.
